{"source": "patent US9532994B2", "about": "“Agents and methods for enhancing bone formation by oxysterols in combination with bone morphogenic proteins” (THE REGENTS OF THE UNIVERSITY OF CALIFORNIA, priority 2003, dated 2017)", "key": {"M2 cells [1]": {"system": "M2 cells", "assay": "Non-toxic doses in M2 cell cultures", "format": "cell-based, mouse"}, "marrow stromal cells": {"system": "marrow stromal cells", "assay": "Osteogenic activity/effects of oxysterol combinations in marrow stromal cells, readout not specified", "format": "cell-based, mouse", "details": "NS-398 at 20 μM, M2 cells"}, "[2]": {"system": "M2-10B4 mouse marrow stromal cell line", "assay": "Alkaline phosphatase (ALP) activity assay in M2 cells", "format": "cell-based", "details": "for inhibition of oxysterol-induced alkaline phosphatase activity: with 22R+20S (2.5 μM each), 3 days, SC 10 μM, ACA 25 μM, MC 20 μM (FIGS. 9A, 9E)", "protocol": "(§1) Cells: M2-10B4 mouse marrow stromal cell line obtained from American Type Culture Collection (ATCC, Rockville, Md., U.S.A.) was derived from bone marrow stromal cells of a (C57BL/6J×C3H/HeJ) F1 mouse, and support human and murine myelopoiesis in long-term cultures (as per ATCC) and have the ability to differentiate into osteoblastic and adipocytic cells. Unless specified, these cells were cultured in RPMI 1640 containing 10% heat-inactivated FBS, and supplemented with 1 mM sodium pyruvate, 100 U/ml penicillin, and 100 […] (all from Irvine Scientific).\nAlkaline phosphatase activity assay: Colorimetric alkaline phosphatase (ALP) activity assay on whole cell extracts was performed as previously described. […]\nTest 2: M2 cells were grown in RPMI medium containing 10% fetal bovine serum (FBS). At confluence, the cells were treated in RPMI containing 5% FBS plus ascorbate at 50 μg/ml and β-glycerophosphate at 3 mM to induce osteoblastic differentiation. Adipogenic differentiation was induced by treating the cells in growth medium plus 10 ˜M troglitazone. A vehicle (C) or oxysterol treatment was applied to cells in a variety of doses (in μM): 20S-Hydroxycholesterol, 25-Hydroxycholesterol, 22R-Hydroxycholesterol; 22S-Hydroxycholesterol; 7-ketocholesterol. Cells were always treated at 90% confluence. After 4 days, alkaline phosphatase activity was determined in whole cell lysates and normalized to protein. Alternatively, MSC cultures were prepared and treated with oxysterols as described above. Cells were treated at 90% confluence with the combination of 22R-Hydroxycholesterol and 20S-Hydroxycholesterol, each at 5 μM, for 4 to 96 hours. The oxysterols where removed and fresh media without oxysterols was added for a total duration of 96 hours. Alkaline phosphatase activity was measured in whole cell extracts and normalized to protein.\nM2 cells were treated at 90% confluence with vehicle (C), or oxysterols 20S-Hydroxycholesterol or 22S-Hydroxycholesterol at (0.5 μM) or (1 μM), in the absence or presence of cytochrome P450 inhibitor (SKF525A 10 μM (+)). MSC cultures were also treated at 90% confluence with vehicle (C), or 20S-Hydroxycholesterol (2 μM), in the absence or presence of cytochrome P450 […] (Benzylimidazole 50 μM) or SKF525A (10 μM). After 4 days, alkaline phosphatase activity was measured in whole cell extracts and normalized to protein. […]"}, "[3]": {"system": "osteocalcin mRNA in M2 cells", "assay": "Northern blotting for osteocalcin mRNA in M2 cells", "format": "cell-based, mouse", "details": "TO treatment, after 10 days", "protocol": "The extent of gene induction was determined by densitometry.\nAfter 4 and 8 days, total RNA from duplicate samples was isolated and analyzed for osteocalcin (Osc) and 28S rRNA expression by Northern blotting as described. FIG. 3E is a radiogram of Northern blotting for osteocalcin mRNA in M2 cells exposed to a control or combination of oxysterols for 4 or 8 days. FIG. 3F is a bar graph depicting the relative demsometric units of osteocalcin mRNA in M2 cells exposed to a control or combination of oxysterols for 4 or 8 days. Data from densitometric analysis of the Northern blot is shown in (F) as the average of duplicate samples, normalized to 28S rRNA.\n(§2) Next, a combination of 22R and 20S oxysterols (RS, 2.5 μM each) were added in the presence or absence of SC as indicated. After 3 days, ALP activity was measured as described earlier. […] (B) M2 cells were treated as described in (A) and after 10 days matrix mineralization in cultures was quantified by a ^45Ca incorporation assay as described earlier. Results from a representative of three experiments are shown, reported as the mean±SD of quadruplicate determinations, normalized to protein concentration. (C) M2 cells were pretreated with 20 μM SC for 4 hours, followed by the addition of RS in the presence or absence of SC as described above. After 8 days, total RNA was isolated and analyzed for osteocalcin (Osc) and 18S rRNA expression by Northern blotting as previously described. Data from densitometric analysis of the Northern blot is shown in (D) as the average of duplicate samples, normalized to 18S rRNA. (E) M2 cells at confluence were pretreated for 2 hours with control vehicle (C), or PLA2 inhibitors ACA (25 μM) and MCOCF3 (MC, 20 μM), in osteogenic medium. Next, a combination of 22R and 20S oxysterols (RS, 2.5 μM) was added in the presence or absence of the inhibitors as indicated. After 3 days, ALP activity was measured as previously described. Data from a representative of three experiments are shown, reported as the mean±SD of quadruplicate determinations, normalized to protein concentration (p<0.01 for RS vs. RS+ACA and RS+MC). (F) M2 cells were treated as described in (E)."}, "[4]": {"system": "M2-10B4 mouse marrow stromal cell line", "assay": "Matrix mineralization in M2 cells (von Kossa staining, 45Ca incorporation assay)", "format": "cell-based", "details": "for inhibition of oxysterol-induced mineralization: with 22R+20S (2.5 μM each), 10 days, 45Ca incorporation (FIGS. 9B, 9F)", "protocol": "as §1\n(§3) Von Kossa and oil red O staining—Matrix mineralization in cell monolayers was detected by silver nitrate staining as previously described. Oil red O staining for detection of adipocytes was performed as previously described.\n^45Ca incorporation assay—Matrix mineralization in cell monolayers was quantified using the ^45Ca incorporation assay as previously described.\nM2 cells at confluence were treated in osteogenic medium with control vehicle or 5 μM oxysterols, alone or in combination as indicated. After 14 days, mineralization was identified by a von Kossa staining, which appears black. FIG. 3C is a depiction of von Kossa staining of M2 cells exposed to various conditions.\nM2 cells were treated with control vehicle (C) or a combination of 22R and 20S oxysterols at increasing concentrations. After 14 days, matrix mineralization in cultures was quantified using a ^45Ca incorporation assay. […] FIG. 3D is a bar graph depicting the effect of a combination of oxysterols at various doses on calcium incorporation in M2 cells.\nas §2, with “(E). After 10 days, matrix mineralization in cultures was quantified using a ^45Ca incorporation assay as previously described. Results from a representative of three experiments are shown, reported as the mean of quadruplicate determinations±SD, normalized to protein concentration (p<0.01 for RS vs. RS+ACA and RS+MC).” for “(E).”\n(A) M2 cells at confluence were pretreated for four hours with RPMI containing 1% FBS, followed by treatment with control vehicle or 5 μM 20S oxysterol for 1, 4, or 8 hours. Next total cell extracts were prepared and analyzed for levels of native or phosphorylated ERK (pERK) using specific antibodies as previously described."}, "M2 cells [5]": {"system": "M2 cells", "assay": "Adipogenesis of M2 cells, oil Red O staining and adipocyte count", "format": "cell-based, mouse", "details": "10 μM Tro, 10 μM oxysterols, alone or in combination, 10 days (FIG. 7)", "protocol": "as §3\nTest 1: M2 cells at 90% confluence were treated with vehicle (C), PPAR-γ activator, troglitazone 10 uM (Tro), alone or in combination with 10 μM oxysterols 20S-, 22R-, or 25S-hydroxycholesterol. After 8 days, adipocytes were identified by oil Red O staining and quantified by counting under a phase contrast microscope. FIG. 6A is a bar graph depicting the effect of oxysterols on reducing adipogenesis of MSC.\nTest 2: (A) M2 cells at confluence were treated in RPMI containing 10% FBS with control vehicle or 10 μM troglitazone (Tro) in the absence or presence of 10 μM 20S or 22S oxysterols. After 10 days, adipocytes were visualized by oil Red O staining and quantified by light microscopy, shown in (B). Data from a representative of four experiments are shown, reported as the mean SD of quadruplicate determinations (p<0.001 for Tro vs. Tro+20S and Tro+22S). (C) M2 cells were treated at confluence with 10 μM Tro, alone or in combination with 10 μM 20S oxysterol. After 10 days, total RNA was isolated and analyzed for lipoprotein lipase (LPL), adipocyte P2 gene (aP2) or 18S rRNA expression by Northern blotting as described (Ref). Data from densitometric analysis of the Northern blot is shown in (D) as the average of duplicate samples, normalized to 18S rRNA."}}, "data": [{"smiles": "CS(=O)(=O)Nc1ccc([N+](=O)[O-])cc1OC1CCCCC1", "note": "[NS-398]", "values": [{"measurement": "highest non-toxic dose", "setting": "M2 cells [1]", "value": 20, "unit": "µM"}, {"measurement": "inhibition of osteogenic effects of oxysterol combination", "setting": "marrow stromal cells", "value": "negligible inhibitory effects"}]}, {"smiles": "CCCCC/C=C\\C/C=C\\C/C=C\\C/C=C\\CCCC(=O)O", "note": "[arachidonic acid]", "values": [{"measurement": "reversal of effect of PLA2 inhibitors on oxysterol-induced alkaline phosphatase activity", "setting": "[2]; 25 μM arachidonic acid, data not shown", "value": "reversed"}]}, {"smiles": "O=S(=O)(c1ccccc1)N(CC(F)(F)F)c1ccc(C(O)(C(F)(F)F)C(F)(F)F)cc1", "note": "[TO, TO-901317]", "values": [{"measurement": "osteoblastic differentiation (alkaline phosphatase activity), LXR ligands", "setting": "[2]; 1-4 μM, 4 days (FIG. 8)", "value": "inhibited"}, {"measurement": "inhibition of alkaline phosphatase activity", "setting": "[2]; TO at 1-10 μM", "value": "dose-dependent inhibition"}, {"measurement": "alkaline phosphatase activity", "setting": "[2]; ligands used at 10 μM, ±SD, control vehicle C: 18±2, p<0.01 for C vs. all ligands", "value": "3±0.5", "unit": "activity units/mg protein"}, {"measurement": "induction of osteocalcin gene expression", "setting": "[3]", "value": "did not induce"}, {"measurement": "induction of mineralization", "setting": "[4]; TO treatment, after 10 days", "value": "did not induce"}]}, {"smiles": "CCCCCc1ccc(/C=C/C(=O)Nc2ccccc2C(=O)O)cc1", "note": "[ACA]", "values": [{"measurement": "inhibition of oxysterol-induced alkaline phosphatase activity", "setting": "[2]", "value": "inhibited"}, {"measurement": "inhibition of oxysterol-induced mineralization", "setting": "[4]", "value": "inhibited"}]}, {"smiles": "COc1cccc(-c2cc(=O)c3ccccc3o2)c1N", "note": "[PD98059]", "values": [{"measurement": "inhibition of oxysterol-induced mineralization by ERK pathway inhibitor", "setting": "[4]; 20 μM PD with 22R+20S (5 μM each), 10 days (FIG. 10B)", "value": "inhibited"}]}, {"smiles": "CCCCC/C=C\\C/C=C\\C/C=C\\C/C=C\\CCCC(=O)C(F)(F)F", "note": "[AACOCF3]", "values": [{"measurement": "inhibition of oxysterol-induced alkaline phosphatase activity", "setting": "[2]", "value": "inhibited"}, {"measurement": "inhibition of oxysterol-induced mineralization", "setting": "[4]", "value": "inhibited"}]}, {"smiles": "CCCC(C(=O)OCCN(CC)CC)(c1ccccc1)c1ccccc1.Cl", "note": "[SKF525A]", "values": [{"measurement": "effect on osteogenic effects of the oxysterols (alkaline phosphatase activity)", "setting": "[2]; SKF525A 10 μM with 20S or 22S at 0.5 or 1 μM, 4 days (FIG. 5A)", "value": "potentiated"}]}, {"smiles": "CCCCC[C@H](O)/C=C/[C@H]1[C@H](O)CC(=O)[C@@H]1C/C=C\\CCCC(=O)O", "note": "[PGE2, prostaglandin E2]", "values": [{"measurement": "reversal of effect of COX-1 inhibitor on oxysterol-induced alkaline phosphatase activity", "setting": "[2]; 1 μM PGE2, data not shown", "value": "reversed"}]}, {"smiles": "CC(C)CCC[C@@H](C)[C@H]1CC[C@H]2[C@@H]3C(=O)C=C4C[C@@H](O)CC[C@]4(C)[C@H]3CC[C@]12C", "note": "[7K, 7-ketocholesterol, reference compound]", "values": [{"measurement": "adipogenesis induced by troglitazone", "setting": "M2 cells [5]", "value": "unable to inhibit"}, {"measurement": "induction of alkaline phosphatase activity", "setting": "[2]; 10 μM oxysterols, osteogenic medium, 3 days (FIG. 3A)", "value": "did not induce"}]}]}
